Results taken from PubChem BioAssay AID248 (DTP/NCI, 2004).
Where “and” joins values, the source holds several entries; their conditions need not be identical. Identical values can stand only once. Toxic doses and inconclusive results are not listed.

Test system: L1210 leukemia ip in BDF1 mice, survival T/C
Test: NCI In Vivo Anticancer Drug Screen. Data for tumor model L1210 Leukemia (intraperitoneal) in B6D2F1 (BDF1) mice
Conditions: endpoint: mean survival time, higher = longer survival
How it was run: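 Tumor was transplanted into mice, which were then dosed with test compound or vehicle alone. Survival was recorded for each group, and the treated figure was expressed relative to the control figure.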

[1] = dose: 100.0 mg/kg/injection, schedule: Q01DX009 (ip), vehicle: Klucel (hydroxypropylcellulose) (HPC)
[2] = dose: 100.0 mg/kg/injection, schedule: Q04DX003 (ip), vehicle: Klucel (hydroxypropylcellulose) (HPC)
[3] = dose: 200.0 mg/kg/injection, schedule: Q01DX009 (ip), vehicle: Klucel (hydroxypropylcellulose) (HPC)
[4] = dose: 200.0 mg/kg/injection, schedule: Q04DX003 (ip), vehicle: Klucel (hydroxypropylcellulose) (HPC)
[5] = dose: 400.0 mg/kg/injection, schedule: Q04DX003 (ip), vehicle: Klucel (hydroxypropylcellulose) (HPC)
[6] = dose: 100.0 mg/kg/injection, schedule: Q04DX003 (ip), vehicle: saline with Tween-80
[7] = dose: 200.0 mg/kg/injection, schedule: Q04DX003 (ip), vehicle: saline with Tween-80
[8] = dose: 400.0 mg/kg/injection, schedule: Q04DX003 (ip), vehicle: saline with Tween-80
[9] = dose: 25.0 mg/kg/injection, schedule: Q01DX001 (ip), vehicle: saline
[10] = dose: 50.0 mg/kg/injection, schedule: Q01DX009 (ip), vehicle: Klucel (hydroxypropylcellulose) (HPC)
[11] = dose: 100.0 mg/kg/injection, schedule: Q01DX001 (ip), vehicle: carboxymethylcellulose (CMC)

In the case of `COc1cc(C(=O)NCC2(C)OC3(OC(=O)C2O)C(=O)N/C(=C(\C=O)C(C)=O)OC3C(O)C2CN2C(C)=O)c2cccc(C)c2c1` (centres undefined), the T/C (dose: 0.05 mg/kg/injection, schedule: Q01DX015 (oral), vehicle: clinical formulation) was 107 % of control, the T/C (dose: 0.1 mg/kg/injection, schedule: Q01DX001 (ip), vehicle: clinical formulation) was 104 % of control and 120 % of control and the T/C (dose: 0.1 mg/kg/injection, schedule: Q01DX015 (oral), vehicle: clinical formulation) was 113 % of control. For the same molecule, the T/C (dose: 0.15 mg/kg/injection, schedule: Q03DX005 (ip), vehicle: clinical formulation) was 111 % of control, the T/C (dose: 0.2 mg/kg/injection, schedule: Q01DX001 (ip), vehicle: clinical formulation) was 103 % of control and the T/C (dose: 0.2 mg/kg/injection, schedule: Q07DX003 (ip), vehicle: clinical formulation) was 105 % of control. The T/C (dose: 0.4 mg/kg/injection, schedule: Q01DX001 (ip), vehicle: clinical formulation) was 95 % of control and 115 % of control, the T/C (dose: 0.8 mg/kg/injection, schedule: Q01DX001 (ip), vehicle: clinical formulation) was 107 % of control and the T/C (dose: 3.5 micrograms/kg/injection, schedule: Q03DX005 (ip), vehicle: clinical formulation) was 114 % of control. The T/C (dose: 6.0 micrograms/kg/injection, schedule: Q01DX015 (ip), vehicle: clinical formulation) was 112 % of control, the T/C (dose: 6.0 micrograms/kg/injection, schedule: Q01DX045 (ip), vehicle: clinical formulation) was 124 % of control and the T/C (dose: 7.0 micrograms/kg/injection, schedule: Q03DX005 (ip), vehicle: clinical formulation) was 122 % of control. For the same molecule, the T/C (dose: 12.5 micrograms/kg/injection, schedule: Q01DX006 (iv), vehicle: clinical formulation) was 109 % of control, the T/C (dose: 12.5 micrograms/kg/injection, schedule: Q01DX015 (im), vehicle: clinical formulation) was 103 % of control and the T/C (dose: 12.5 micrograms/kg/injection, schedule: Q01DX045 (ip), vehicle: clinical formulation) was 118 % of control. The T/C (dose: 13.0 micrograms/kg/injection, schedule: Q01DX Z (ip), vehicle: saline) was 113 % of control, the T/C (dose: 13.0 micrograms/kg/injection, schedule: Q07DX003 (ip), vehicle: clinical formulation) was 118 % of control and the T/C (dose: 25.0 micrograms/kg/injection, schedule: Q01DX006 (iv), vehicle: clinical formulation) was 101 % of control. For the same molecule, the T/C (dose: 25.0 micrograms/kg/injection, schedule: Q01DX015 (im), vehicle: clinical formulation) was 109 % of control, the T/C (dose: 25.0 micrograms/kg/injection, schedule: Q01DX Z (ip), vehicle: saline) was 113 % of control and the T/C (dose: 25.0 micrograms/kg/injection, schedule: Q07DX003 (ip), vehicle: clinical formulation) was 124 % of control. For the same molecule, the T/C (dose: 50.0 micrograms/kg/injection, schedule: Q01DX006 (iv), vehicle: clinical formulation) was 115 % of control, the T/C (dose: 50.0 micrograms/kg/injection, schedule: Q01DX015 (im), vehicle: clinical formulation) was 115 % of control and the T/C (dose: 50.0 micrograms/kg/injection, schedule: Q01DX Z (ip), vehicle: saline) was 98 % of control and 107 % of control. The T/C (dose: 100.0 micrograms/kg/injection, schedule: Q01DX006 (iv), vehicle: clinical formulation) was 123 % of control, the T/C (dose: 100.0 micrograms/kg/injection, schedule: Q01DX015 (im), vehicle: clinical formulation) was 110 % of control and the T/C (dose: 100.0 micrograms/kg/injection, schedule: Q01DX015 (ip), vehicle: clinical formulation) was 95 % of control. The T/C (dose: 100.0 micrograms/kg/injection, schedule: Q01DX Z (ip), vehicle: saline) was 89 % of control.

With `CC1Nc2ccccc2NC1C` (centres undefined) the T/C (dose: 100.0 mg/kg/injection, schedule: Q01DX001 (ip), vehicle: saline) was 98 % of control.

For `CCCCCCCCCCCCCCCC[N+](C)(C)Cc1ccccc1`, the T/C (dose: 0.5 mg/kg/injection, schedule: Q04DX002 (ip), vehicle: Klucel (hydroxypropylcellulose) (HPC)) was 98 % of control, the T/C (dose: 1.0 mg/kg/injection, schedule: Q04DX002 (ip), vehicle: Klucel (hydroxypropylcellulose) (HPC)) was 103 % of control and the T/C (dose: 2.0 mg/kg/injection, schedule: Q04DX002 (ip), vehicle: Klucel (hydroxypropylcellulose) (HPC)) was 103 % of control.

In the case of `COc1ccc(C)cc1CN1NC(=O)CC1=N`, the T/C [1] was 97 % of control, the T/C [2] was 106 % of control and the T/C [3] was 101 % of control. For the same molecule, the T/C [4] was 110 % of control, the T/C (dose: 400.0 mg/kg/injection, schedule: Q01DX009 (ip), vehicle: Klucel (hydroxypropylcellulose) (HPC)) was 98 % of control and the T/C [5] was 102 % of control.

For `COC1OC(COCc2ccccc2)C(OCc2ccccc2)C(OC)C1O` (centres undefined), the T/C [6] was 96 % of control, the T/C [7] was 94 % of control and the T/C [8] was 104 % of control.

For `Nc1nc(N)c(CCc2ccccc2)c(=O)[nH]1`, the T/C [6] was 100 % of control, the T/C [7] was 94 % of control and the T/C [8] was 94 % of control.

For `CCC(CO)NC(=O)/C=C/c1cc(OC)ccc1OC` (centres undefined), the T/C (dose: 150.0 mg/kg/injection, schedule: Q04DX003 (ip), vehicle: saline with Tween-80) was 111 % of control, the T/C (dose: 300.0 mg/kg/injection, schedule: Q04DX003 (ip), vehicle: saline with Tween-80) was 102 % of control and the T/C (dose: 600.0 mg/kg/injection, schedule: Q04DX003 (ip), vehicle: saline with Tween-80) was 109 % of control.

In the case of `CCCCCCCCCC(O)CCCCC` (centres undefined), the T/C (dose: 100.0 mg/kg/injection, schedule: Q01DX009 (ip), vehicle: saline with Tween-80) was 103 % of control, the T/C [2] was 98 % of control and the T/C (dose: 200.0 mg/kg/injection, schedule: Q01DX009 (ip), vehicle: saline with Tween-80) was 107 % of control. For the same molecule, the T/C [4] was 97 % of control and the T/C [5] was 101 % of control.

With `CC(=O)CC(=O)CF.CC(=O)CC(=O)CF.[Cu]` the T/C (dose: 12.0 mg/kg/injection, schedule: Q01DX001 (ip), vehicle: saline) was 90 % of control and the T/C [9] was 107 % of control.

With `C[CH2][Pb]([CH2]C)([CH2]C)[S]c1ccc(Cl)cc1` the T/C (dose: 25.0 mg/kg/injection, schedule: Q04DX002 (sc), vehicle: olive oil, sesame oil, peanut oil) was 110 % of control and the T/C (dose: 50.0 mg/kg/injection, schedule: Q04DX002 (sc), vehicle: olive oil, sesame oil, peanut oil) was 87 % of control.

For `CCCOc1ccc(-c2nc(-c3ccc(N=Cc4ccc(N(CCOS(C)(=O)=O)CCOS(C)(=O)=O)cc4C)cc3)cs2)cc1`, the T/C (dose: 25.0 mg/kg/injection, schedule: Q01DX009 (ip), vehicle: Klucel (hydroxypropylcellulose) (HPC)) was 114 % of control, the T/C [10] was 109 % of control and the T/C (dose: 75.0 mg/kg/injection, schedule: Q01DX009 (ip), vehicle: Klucel (hydroxypropylcellulose) (HPC)) was 106 % of control. For the same molecule, the T/C [1] was 94 % of control.

`CCOc1cc(C=Nc2cc(Cl)c(O)c(Cl)c2)ccc1N(CCCl)CCCl` was tested, and the T/C (dose: 5.0 mg/kg/injection, schedule: Q01DX009 (ip), vehicle: carboxymethylcellulose (CMC)) was 114 % of control, the T/C (dose: 5.0 mg/kg/injection, schedule: Q01DX009 (ip), vehicle: saline) was 105 % of control and the T/C (dose: 10.0 mg/kg/injection, schedule: Q01DX009 (ip), vehicle: saline) was 106 % of control. The T/C (dose: 13.0 mg/kg/injection, schedule: Q01DX009 (ip), vehicle: carboxymethylcellulose (CMC)) was 120 % of control, the T/C [9] was 109 % of control and the T/C (dose: 44.0 mg/kg/injection, schedule: Q01DX001 (ip), vehicle: carboxymethylcellulose (CMC)) was 118 % of control. The T/C (dose: 44.0 mg/kg/injection, schedule: Q01DX009 (ip), vehicle: other) was 113 % of control, the T/C (dose: 50.0 mg/kg/injection, schedule: Q01DX001 (ip), vehicle: saline) was 116 % of control and the T/C [11] was 150 % of control.

With `c1ccc2c(c1)CCC1NC21` (centres undefined) the T/C [11] was 103 % of control and the T/C (dose: 200.0 mg/kg/injection, schedule: Q01DX001 (ip), vehicle: carboxymethylcellulose (CMC)) was 105 % of control.

With `O=S(=O)(Oc1cccc(C(F)(F)F)c1)c1cccc(C(F)(F)F)c1` the T/C (dose: 6.25 mg/kg/injection, schedule: Q01DX009 (ip), vehicle: saline sonified) was 101 % of control, the T/C (dose: 6.25 mg/kg/injection, schedule: Q04DX003 (ip), vehicle: Klucel (hydroxypropylcellulose) (HPC)) was 103 % of control and the T/C (dose: 12.5 mg/kg/injection, schedule: Q01DX009 (ip), vehicle: saline sonified) was 97 % of control. The T/C (dose: 12.5 mg/kg/injection, schedule: Q04DX003 (ip), vehicle: Klucel (hydroxypropylcellulose) (HPC)) was 109 % of control, the T/C (dose: 25.0 mg/kg/injection, schedule: Q01DX009 (ip), vehicle: saline sonified) was 90 % of control and the T/C (dose: 25.0 mg/kg/injection, schedule: Q04DX003 (ip), vehicle: Klucel (hydroxypropylcellulose) (HPC)) was 117 % of control. For the same molecule, the T/C [4] was 86 % of control.

`O=C1NCCNC1=O` was tested, and the T/C (dose: 100.0 mg/kg/injection, schedule: Q04DX003 (ip), vehicle: saline) was 101 % of control, the T/C (dose: 200.0 mg/kg/injection, schedule: Q04DX003 (ip), vehicle: saline) was 100 % of control and the T/C (dose: 400.0 mg/kg/injection, schedule: Q04DX003 (ip), vehicle: saline) was 105 % of control.

For `CCOC(=O)C(Cc1cc(C(C)(C)C)c(O)c(C(C)(C)C)c1)(NC=O)C(=O)OCC`, the T/C [10] was 103 % of control, the T/C [1] was 100 % of control and the T/C [3] was 96 % of control.
